In US11820827B2, “Methods of treating myelodysplastic syndrome and acute myeloid leukemia with nonfucosylated anti-CD70 antibodies” (Seagen Inc., priority 2019, dated 2023):
Values joined by “and” are separate entries in the source; they are usually repeats but may differ in a detail not shown here. Identical values can stand only once.

Columns and labels:
[1] = tested on: MV-411 acute myeloid leukemia model; experiment: Tumor growth in the MV-411 acute myeloid leukemia xenograft model (Example 7); assay type: in vivo, SCID mice
MV4-11 AML xenograft [2] = experiment: Tumor growth in the MV4-11 AML xenograft model, SEA-CD70 and azacitidine (Example 10); assay type: in vivo, SCID mice
MV4-11 AML xenograft [3] = experiment: Tumor growth in the MV4-11 AML xenograft model, SEA-CD70, azacitidine, venetoclax (Example 11); assay type: in vivo, SCID mice; details: antibody 10 mg/kg Q4dx5, azacitidine 2 mg/kg Q1dx5 3 cycles, venetoclax 25 mg/kg oral Q1dx21; comparisons at day 39
Text: Tumor growth was reported as a volume and calculated as an average across animals within each treatment group (FIG. 11A). Immunocompromised SCID mice were implanted with 5×10e6 MV4-11 cells subcutaneously in the flank on day 0. When mean tumor size of 50 mm^3 (measured by using the formula: Volume (mm^3)=0.5*Length*Width^2, where the length is the longer dimension) was reached, mice were randomized into treatment groups of 10 mice per group. Stock concentrations of antibody and chemotherapy were diluted to the appropriate concentration and injected into animals at 10 μl/g of body weight. Tumor length and width, and animal weight were measured two times weekly throughout the study and tumor volume was calculated using the formula above. Animals were followed until tumor volume measured ˜1000 mm^3, at which time the animals were euthanized. Animals were dosed on various schedules based on treatment received; animals receiving antibody were treated with 10 mg/kg of antibody (Q4dx5), azacitidine-treated animals were dosed daily (2 mg/kg) for five consecutive days (Q1dx5) each week, for a total of 3 cycles (3 weeks); venetoclax was given at 25 mg/kg every day by oral gavage for 21 days consecutively (Q1dx21). Animal receiving combination of treatments received each treatment at the same dose and schedule as the single treatments.

hFcγRIIIa V158 = target: T1, hFcγRIIIa V158 (Homo sapiens, UniProt P08637, F176V); experiment: BLI binding kinetics to high affinity FcγRIIIa (158V) receptor variant; details: 1:1 Langmuir global fit
T1 construct: made in house
T1 sequence (P08637 17-208 F176V): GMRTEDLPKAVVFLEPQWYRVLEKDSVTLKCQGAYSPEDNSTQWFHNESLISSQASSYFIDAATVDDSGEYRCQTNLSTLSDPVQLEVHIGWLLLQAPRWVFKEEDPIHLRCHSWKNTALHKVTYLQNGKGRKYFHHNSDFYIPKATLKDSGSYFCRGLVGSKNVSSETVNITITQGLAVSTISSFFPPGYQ

[4] = tested on: T regulatory cells (Treg) in PBMCs; experiment: Treg depletion in PBMCs; assay type: cell-based, human; details: 24 hours
Procedure: (§1) At the end of the experiment cells were stained with Zombie Aqua Viability Dye and total viable Treg naïve and memory CD4 and CD8 T cell numbers were assessed. […] Fucosylated (WT Clone 13 IgG1) and nonfucosylated (SEA Clone 13 IgG1) antibodies targeting TIGIT were used as positive controls (FIG. 4E-4H).

CD8 T cells in PBMCs = experiment: CD8 T cell depletion in PBMCs; assay type: cell-based, human; details: 24 hours
Procedure: as §1

[5] = tested on: NOMO-1 CD70+ target cells; experiment: ADCP with monocyte-derived macrophages, NOMO-1; assay type: cell-based, human; details: flow cytometry, antibody dose-dependent
Procedure: (§2) Phagocytosis of fluorescently labeled target cells was determined by flow cytometry. Phagocytosis was measured for the appearance of double-labeled coincident events (fluorescent target cells) and anti-CD11c positivity to identify monocyte/macrophages.
(§3) The following protocol was used to assess […] activity on AML cell lines: • 1. Target cells were labeled using the PKH26 Red Fluorescent Cell Linker Mini Kit (Sigma Aldrich) and following the manufacturer's instructions. • 2. Cells (4000 cells/well) were incubated with the indicated test articles for 30 minutes, washed and resuspended in RPMI plus 10% ultra-low IgG FBS. • 3. PBMC-derived macrophages (100,000 cells/well), generated by incubating PBMC-derived monocytes with 500 U/mL (50 ng/mL) GM-CSF for 10-12 days, were added to the target cells and incubated at 37° C. for 2 hours. • 4. Plates were centrifuged and cells resuspended in 100 μl of APC-CD11 antibody (macrophage marker) and incubated on ice for 30 minutes. • 5. Cells were washed, resuspended in PBS and analyzed by flow cytometry to determine the percentage of phagocytosis

[6] = tested on: MOLM-13 CD70+ target cells; experiment: ADCP with monocyte-derived macrophages, MOLM-13; assay type: cell-based, human; details: flow cytometry, antibody dose-dependent
Procedure: as §2, §3

[7] = tested on: MOLM-13 CD70+ AML cell line; experiment: CDC with normal human serum, MOLM-13; assay type: cell-based; details: normal human serum not heat inactivated
Procedure: (§4) AML cell lines positive for CD70 were fluorescently labeled and treated with increasing concentrations of CD70 directed antibodies. Cells were then exposed to human compliment and lysis determined as release of fluorescent dye.
(§5) The following protocol was used to assess CDC activity on AML cell lines: • 1. Cells were incubated with […] anti-CRP monoclonal antibodies mix (anti-hCD46, anti-hCD55, anti-hCD59) for 30 minutes on ice. • 2. Cells were washed and plated (200,000 cells/well) in media containing non-heat-inactivated serum, Sytox Green (Life technology), and antibodies, which were added at the indicated final concentration, for 2 hours at 37° C. • 3. Cell dead was quantified by detecting Sitox Green fluorescent signal on an Envison plate reader (Perkin Elmer) and normalized over positive control (1% Triton X-100 treated cells).

[8] = tested on: NOMO-1 CD70+ AML cell line; experiment: CDC with normal human serum, NOMO-1; assay type: cell-based; details: normal human serum not heat inactivated
Procedure: as §4, §5

[9] = antibody 10 mg/kg Q4dx5, azacitidine 2 mg/kg Q1dx5 for 3 cycles

Nc1ncn([C@@H]2O[C@H](CO)[C@@H](O)[C@H]2O)c(=O)n1 [azacitidine]
tumor volume, individual animals ([1]; Vidaza 5 mg/kg Q4dx4, day 9 post implant): 45.0 mm^3 and 50.0 mm^3 and 49.9 mm^3 and 57.6 mm^3 and 59.5 mm^3 and 55.2 mm^3
tumor volume, individual animals ([1]; Vidaza 5 mg/kg Q4dx4, day 13 post implant): 47.9 mm^3 and 47.5 mm^3 and 73.3 mm^3 and 50.9 mm^3 and 84.1 mm^3 and 65.6 mm^3
tumor volume, individual animals ([1]; Vidaza 5 mg/kg Q4dx4, day 16 post implant): 35.9 mm^3 and 42.5 mm^3 and 48.9 mm^3 and 47.2 mm^3 and 99.2 mm^3 and 70.8 mm^3
tumor volume, individual animals ([1]; Vidaza 5 mg/kg Q4dx4, day 20 post implant): 45.2 mm^3 and 47.1 mm^3 and 86.6 mm^3 and 69.9 mm^3 and 162.6 mm^3 and 63.4 mm^3
tumor volume, individual animals ([1]; Vidaza 5 mg/kg Q4dx4, day 24 post implant): 74.2 mm^3 and 66.4 mm^3 and 136.7 mm^3 and 125.0 mm^3 and 301.0 mm^3 and 92.0 mm^3
tumor volume, individual animals ([1]; Vidaza 5 mg/kg Q4dx4, day 27 post implant): 141.5 mm^3 and 129.0 mm^3 and 344.5 mm^3 and 295.9 mm^3 and 465.4 mm^3 and 202.5 mm^3
tumor volume, individual animals ([1]; Vidaza 5 mg/kg Q4dx4, day 30 post implant): 161.8 mm^3 and 130.7 mm^3 and 469.6 mm^3 and 379.5 mm^3 and 778.9 mm^3 and 279.0 mm^3
tumor volume, individual animals ([1]; Vidaza 5 mg/kg Q4dx4, day 34 post implant): 303.9 mm^3 and 260.2 mm^3 and 649.8 mm^3 and 640.9 mm^3 and 1238.8 mm^3 and 451.9 mm^3
tumor volume, individual animals ([1]; Vidaza 5 mg/kg Q4dx4, day 38 post implant): 568.7 mm^3 and 452.8 mm^3 and 1164.6 mm^3 and 993.8 mm^3 and 740.5 mm^3
tumor volume, individual animals ([1]; Vidaza 5 mg/kg Q4dx4, day 41 post implant): 978.2 mm^3 and 688.1 mm^3 and 1063.7 mm^3
delay in tumor growth ([1]; from time to 10× fold change versus untreated, h1F6SEA 10 mg/kg, azacitidine 5 mg/kg): 20.5%
average time for tumors to reach a 10× fold change ([1]; h1F6SEA 10 mg/kg, azacitidine 5 mg/kg, Q4dx4 intraperitoneally, untreated 26.8 days): 33.68 days
effect on tumor growth (MV4-11 AML xenograft [2]; [9]): reduce tumor growth
average time for tumors to reach a 10× fold change (MV4-11 AML xenograft [2]; antibody 10 mg/kg Q4dx5, azacitidine 2 mg/kg Q1dx5 for 3 cycles, intraperitoneally, untreated 17.82 days): 26.59 days
delay in tumor growth (MV4-11 AML xenograft [2]; from time to 10× fold change compared to untreated control): 33%
effect on tumor growth (MV4-11 AML xenograft [3]): delay tumor growth

h1F6G1V1: antibody comprising the same CDRs as SEA-CD70, but inactivating backbone mutations (E233P, L234V, L235A) reducing Fcgamma receptor binding
tumor volume, individual animals ([1]; h1F6G1V1 20 mg/kg Q4dx4, day 9 post implant, 20 mg/kg): 48.0 mm^3 and 62.8 mm^3 and 51.3 mm^3 and 49.1 mm^3 and 52.1 mm^3 and 58.2 mm^3
tumor volume, individual animals ([1]; h1F6G1V1 20 mg/kg Q4dx4, day 13 post implant, 20 mg/kg): 46.1 mm^3 and 64.4 mm^3 and 65.7 mm^3 and 61.5 mm^3 and 56.8 mm^3 and 65.4 mm^3
tumor volume, individual animals ([1]; h1F6G1V1 20 mg/kg Q4dx4, day 16 post implant, 20 mg/kg): 59.3 mm^3 and 109.1 mm^3 and 97.7 mm^3 and 68.1 mm^3 and 64.7 mm^3 and 103.8 mm^3
tumor volume, individual animals ([1]; h1F6G1V1 20 mg/kg Q4dx4, day 20 post implant, 20 mg/kg): 91.5 mm^3 and 234.8 mm^3 and 241.3 mm^3 and 80.6 mm^3 and 104.4 mm^3 and 127.2 mm^3
tumor volume, individual animals ([1]; h1F6G1V1 20 mg/kg Q4dx4, day 24 post implant, 20 mg/kg): 188.7 mm^3 and 449.2 mm^3 and 338.1 mm^3 and 96.3 mm^3 and 198.9 mm^3 and 274.9 mm^3
tumor volume, individual animals ([1]; h1F6G1V1 20 mg/kg Q4dx4, day 27 post implant, 20 mg/kg): 306.6 mm^3 and 606.7 mm^3 and 567.6 mm^3 and 213.6 mm^3 and 325.4 mm^3 and 433.0 mm^3
tumor volume, individual animals ([1]; h1F6G1V1 20 mg/kg Q4dx4, day 30 post implant, 20 mg/kg): 474.6 mm^3 and 1156.6 mm^3 and 1039.1 mm^3 and 325.4 mm^3 and 470.6 mm^3 and 847.7 mm^3
tumor volume, individual animals ([1]; h1F6G1V1 20 mg/kg Q4dx4, day 34 post implant, 20 mg/kg): 782.9 mm^3 and 709.0 mm^3 and 1001.0 mm^3 and 1081.8 mm^3
tumor volume, individual animals ([1]; h1F6G1V1 20 mg/kg Q4dx4, day 38 post implant, 20 mg/kg): 1269.5 mm^3 and 1330.9 mm^3
effect on tumor growth (MV4-11 AML xenograft [2]; [9]): not effective in reducing tumor growth

B1: SGN-70: fucosylated parent anti-CD70 antibody (h1F6) of SEA-CD70 (antibody, chains of the INN, looked up, V domains shown)
VH: QVQLVQSGAEVKKPGASVKVSCKASGYTFTNYGMNWVRQAPGQGLKWMGWINTYTGEPTYADAFKGRVTMTRDTSISTAYMELSRLRSDDTAVYYCARDYGDYGMDYWGQGTTVTVSS
VL: DIVMTQSPDSLAVSLGERATINCRASKSVSTSGYSFMHWYQQKPGQPPKLLIYLASNLESGVPDRFSGSGSGTDFTLTISSLQAEDVAVYYCQHSREVPWTFGQGTKVEIK
Kd (hFcγRIIIa V158): 860 nM
T regulatory cell depletion ([4]; donor homozygous for high affinity FcγRIIIa (V/V 158)): resulted in T regulatory cell depletion
T regulatory cell depletion ([4]; donor homozygous for low affinity FcγRIIIa (F/F 158)): Neither CD70 targeting antibody induced T regulatory cell depletion
CD8+ cell depletion (CD8 T cells in PBMCs; V/V high affinity donor): Neither fucosylated nor nonfucosylated anti-CD70 antibodies depleted CD8+ cells
CD8+ cell depletion (CD8 T cells in PBMCs; low affinity (F/F 158) donor): Neither fucosylated nor nonfucosylated anti-CD70 antibodies depleted CD8+ cells
phagocytosis of antibody-coated target cells by macrophages [5]: readily phagocytosed target cells
phagocytosis of antibody-coated target cells by macrophages [6]: readily phagocytosed target cells
cell lysis by complement fixation [7]: lysed in an antibody-specific, dose-dependent manner
cell lysis by complement fixation [8]: lysed in an antibody-specific, dose-dependent manner
